Converted amounts (≈) assume the structure as drawn. The source made the active and inactive calls. The rule behind the calls is not given here.
Key:
HCT-116 [1] = assay: cells; details: Homo sapiens, HCT-116, 72 h
Description: Antiproliferative activity against human HCT116 cells after 72 hrs by MTS assay

[2] = Inhibition of sheep brain tubulin polymerization by DAPI-fluorescence based fluorimetry; design: species or system Ovis aries
Cytochrome P450 [3] = assay: Drug metabolism in human liver microsomes assessed as cytochrome P450-mediated hydroxylated metabolite formation at 100 uM after 6 hrs in presence of NADPH generating system by HPLC-UV-MS analysis; format: ADME
Cytochrome P450 [4] = assay: Drug metabolism in human liver microsomes assessed as cytochrome P450-mediated O-demethylated metabolite formation at 100 uM after 6 hrs in presence of NADPH generating system by HPLC-UV-MS analysis; format: ADME
[5] = Aqueous solubility of the compound in phosphate buffer at pH 7.4 after 4 hrs by HPLC-UV analysis; format: physicochemical
K-562R [6] = assay: Antiproliferative activity against human K562R cells after 72 hrs by MTS assay; format: functional, cell-based
K562 = assay: cells; details: Homo sapiens, K562, 72 h
HT-29 = assay: cells; details: Homo sapiens, HT-29, 72 h
Description: Antiproliferative activity against human HT-29 cells after 72 hrs by MTS assay

A549 [7] = assay: cells; details: Homo sapiens, A549, 72 h
Description: Antiproliferative activity against human A549 cells after 72 hrs by MTS assay

U-87 MG = assay: Antiproliferative activity against human U87MG cells after 72 hrs by MTS assay; format: functional, cell-based, U-87MG ATCC
Cytochrome P450 [8] = assay: Drug metabolism in human liver microsomes assessed as cytochrome P450-mediated N-demethylated metabolite formation at 100 uM after 6 hrs in presence of NADPH generating system by HPLC-UV-MS analysis; format: ADME
[9] = Lipophilicity, log P of the compound after 24 hrs by HPLC analysis; format: physicochemical
[10] = Drug metabolism in rat liver microsomes assessed as cytochrome P450-mediated hydroxylated metabolite formation at 100 uM after 6 hrs in presence of NADPH generating system by HPLC-UV-MS analysis; format: ADME
[11] = Drug metabolism in rat liver microsomes assessed as cytochrome P450-mediated N-demethylated metabolite formation at 100 uM after 6 hrs in presence of NADPH generating system by HPLC-UV-MS analysis; format: ADME
[12] = Drug metabolism in rat liver microsomes assessed as cytochrome P450-mediated 6-(1-(3-hydroxy-4-methoxyphenyl)vinyl)-2,3,4-trimethoxyphenol metabolite formation at 100 uM after 6 hrs in presence of NADPH generating system by HPLC-UV-MS analysis; format: ADME
HUVEC [13] = assay: cells; details: Homo sapiens, 72 h
Description: Antiproliferative activity against HUVEC after 72 hrs by MTS assay

[14] = Drug metabolism in rat liver microsomes assessed as cytochrome P450-mediated O-demethylated metabolite formation at 100 uM after 6 hrs in presence of NADPH generating system by HPLC-UV-MS analysis; format: ADME
Cytochrome P450 [15] = assay: Drug metabolism in human liver microsomes assessed as cytochrome P450-mediated 6-(1-(3-hydroxy-4-methoxyphenyl)vinyl)-2,3,4-trimethoxyphenol metabolite formation at 100 uM after 6 hrs in presence of NADPH generating system by HPLC-UV-MS analysis; format: ADME
Cytochrome P450 [16] = assay: Drug metabolism in human liver microsomes assessed as cytochrome P450-mediated 3-(1-(2-methylquinolin-4-yl)vinyl)-9H-carbazole metabolite formation at 100 uM after 6 hrs in presence of NADPH generating system by HPLC-UV-MS analysis; format: ADME
HUVEC [17] = assay: Antiangiogenic activity in HUVEC assessed as inhibition of tube formation after 2 to 6 hrs by matrigel assay; format: functional, cell-based; details: Homo sapiens
[18] = Metabolic stability in rat liver microsomes assessed as parent compound at 100 uM up to […] in presence of NADPH generating system by HPLC-MS/MS analysis; format: ADME, Microsome
HCT-116 [19] = assay: Induction of cell cycle arrest in human HCT116 cells assessed as accumulation at G2M phase after 24 hrs by propidium iodide staining based flow cytometry; format: functional
[20] = Metabolic stability in human liver microsomes assessed as parent compound at 100 uM up to […] in presence of NADPH generating system by HPLC-MS/MS analysis; format: ADME, Microsome
HUVEC [21] = assay: Antiangiogenic activity in HUVEC assessed as disorganization of the vasculature network at 50 nM after 2 hrs by matrigel assay; format: functional, cell-based; details: Homo sapiens
HUVEC [22] = assay: Antiangiogenic activity in HUVEC assessed as disorganization of the vasculature network at 10 nM after 6 hrs by matrigel assay; format: functional, cell-based; details: Homo sapiens
HCT-116 [23] = assay: Induction of cell cycle arrest in human HCT116 cells assessed as accumulation at G2M phase at 10 nM after 24 hrs by propidium iodide staining based flow cytometry relative to control; format: functional
K-562R [24] = assay: Potency index, ratio of CA-4 IC50 to compound IC50 for antiproliferative activity against human K562R cells; format: functional
[25] = Drug metabolism in rat liver microsomes assessed as cytochrome P450-mediated 3-(1-(2-methylquinolin-4-yl)vinyl)-9H-carbazole metabolite formation at 100 uM after 6 hrs in presence of NADPH generating system by HPLC-UV-MS analysis; format: ADME
A549 [26] = assay: Potency index, ratio of CA-4 IC50 to compound IC50 for antiproliferative activity against human A549 cells; format: functional
K-562R [27] = assay: Potency index, ratio of iso-CA-4 IC50 to compound IC50 for antiproliferative activity against human K562R cells; format: functional
[28] = Drug metabolism in rat liver microsomes assessed as cytochrome P450-mediated 2-methoxy-5-(1-(3,4,5-trimethoxyphenyl)vinyl)cyclohexa-2,5-diene-1,4-dione metabolite formation at 100 uM after 6 hrs in presence of NADPH generating system by HPLC-UV-MS analysis; format: ADME
[29] = Drug metabolism in rat liver microsomes assessed as cytochrome P450-mediated 4-(1-(3-hydroxy-4-methoxyphenyl)vinyl)-2,6-dimethoxyphenol metabolite formation at 100 uM after 6 hrs in presence of NADPH generating system by HPLC-UV-MS analysis; format: ADME
Cytochrome P450 [30] = assay: Drug metabolism in human liver microsomes assessed as cytochrome P450-mediated 4-(1-(3-hydroxy-4-methoxyphenyl)vinyl)-2,6-dimethoxyphenol metabolite formation at 100 uM after 6 hrs in presence of NADPH generating system by HPLC-UV-MS analysis; format: ADME
Cytochrome P450 [31] = assay: Drug metabolism in human liver microsomes assessed as cytochrome P450-mediated 2-methoxy-5-(1-(3,4,5-trimethoxyphenyl)vinyl)cyclohexa-2,5-diene-1,4-dione metabolite formation at 100 uM after 6 hrs in presence of NADPH generating system by HPLC-UV-MS analysis; format: ADME
[32] = Drug level in rat liver microsomes treated with 9-Methyl-3-(1-(2-methylquinolin-4-yl)vinyl)-9H-carbazole assessed as CYP450-mediated compound metabolism at 100 uM after 6 hrs in presence of NADPH generating system by HPLC-UV-MS analysis; format: ADME
Cytochrome P450 [33] = assay: Drug level in human liver microsomes treated with 9-Methyl-3-(1-(2-methylquinolin-4-yl)vinyl)-9H-carbazole assessed as CYP450-mediated compound metabolism at 100 uM after 6 hrs in presence of NADPH generating system by HPLC-UV-MS analysis; format: ADME
Cytochrome P450 [34] = assay: Drug level in human liver microsomes treated with isocombratestatin-A4 assessed as CYP450-mediated compound metabolism at 100 uM after 6 hrs in presence of NADPH generating system by HPLC-UV-MS analysis; format: ADME
[35] = Drug level in rat liver microsomes treated with isocombratestatin-A4 assessed as CYP450-mediated compound metabolism at 100 uM after 6 hrs in presence of NADPH generating system by HPLC-UV-MS analysis; format: ADME

C=C(c1ccc2c(c1)c1ccccc1n2C)c1cc(C#N)nc2ccccc12
IC50 (HCT-116 [1]): 12 nM
IC50 [2]: 3600 nM

C=C(c1ccc(OC)c(O)c1)c1cc(OC)c(OC)c(OC)c1
Drug metabolism (Cytochrome P450 [3]): Metabolite_Detected
Drug metabolism (Cytochrome P450 [4]): Metabolite_Detected
solubility at 4 h [5]: 11.6 µg/mL (≈ 36.7 µM)
IC50 (K-562R [6]): 3 nM
IC50 (K562): 2 nM
IC50 [2]: 2100 nM
IC50 (HT-29): 265 nM
IC50 (A549 [7]): 8 nM
IC50 (U-87 MG): 8.2 nM
Drug metabolism (Cytochrome P450 [8]): Metabolite_Detected
logP ([9]; 24 h): 3.25
Drug metabolism [10]: Metabolite_Detected
Drug metabolism [11]: Metabolite_Detected
Drug metabolism [12]: Metabolite_Detected
IC50 (HUVEC [13]): 2 nM
Drug metabolism [14]: Metabolite_Detected
Drug metabolism (Cytochrome P450 [15]): Metabolite_Detected

C=C(c1ccc2c(c1)c1ccccc1n2C)c1cc(C)nc2ccccc12
Drug metabolism (Cytochrome P450 [3]): Metabolite_Detected
Drug metabolism (Cytochrome P450 [16]): Metabolite_Detected
IC50 (HCT-116 [1]): 2 nM
solubility at 4 h [5]: 0.42 µg/mL (≈ 1.21 µM)
IC50 (K-562R [6]): 0.9 nM
Activity (HUVEC [17]): Dose-dependent effect
Stability [18]: Stable
IC50 (K562): 2 nM
Activity (HCT-116 [19]): Dose-dependent effect
Stability [20]: Stable
Activity (HUVEC [21]): Active
IC50 [2]: 2000 nM
IC50 (HT-29): 3 nM
IC50 (A549 [7]): 3 nM
IC50 (U-87 MG): 1.9 nM
Drug metabolism (Cytochrome P450 [8]): Metabolite_Detected
Activity (HUVEC [22]): Active
logP at 24 h [9]: 5.29
Activity (HCT-116 [23]): >90%
Drug metabolism [10]: Metabolite_Detected
Drug metabolism [11]: Metabolite_Detected
Ratio IC50 (K-562R [24]): 27
Drug metabolism [25]: Metabolite_Detected
IC50 (HUVEC [13]): 0.81 nM
Ratio IC50 (A549 [26]): 67
Ratio IC50 (K-562R [27]): 3

COc1ccc(/C=C\c2cc(OC)c(OC)c(OC)c2)cc1O [COMBRETASTATIN A4]
IC50 (HCT-116 [1]): 2.2 nM
Drug metabolism [28]: Metabolite_Detected
IC50 (K562): 5 nM
IC50 [2]: 2200 nM
Drug metabolism [29]: Metabolite_Detected
Drug metabolism (Cytochrome P450 [30]): Metabolite_Detected
IC50 (HT-29): > 8000 nM
IC50 (A549 [7]): 200 nM
IC50 (U-87 MG): 4 nM
Drug metabolism (Cytochrome P450 [31]): Metabolite_Detected
IC50 (HUVEC [13]): 1.7 nM

C=C(c1ccc2c(ccn2C)c1)c1cc(C#N)nc2ccccc12
Drug metabolism (Cytochrome P450 [3]): Metabolite_Detected
solubility at 4 h [5]: 3.11 µg/mL (≈ 10.1 µM)
Drug metabolism (Cytochrome P450 [8]): Metabolite_Detected
logP at 24 h [9]: 2.37
Drug metabolism [10]: Metabolite_Detected
Drug metabolism [11]: Metabolite_Detected

C=C(c1ccc2[nH]c3ccccc3c2c1)c1cc(C)nc2ccccc12
Drug metabolism [32]: Metabolite_Detected
Drug metabolism (Cytochrome P450 [33]): Metabolite_Detected

C=C(c1ccc2c(c1)c1cc(F)ccc1n2C)c1cn(C)c(=O)n(C)c1=O
IC50 (HCT-116 [1]): 300 nM

C=C(C1=CC(=O)C(OC)=CC1=O)c1cc(OC)c(OC)c(OC)c1
Drug metabolism (Cytochrome P450 [34]): Metabolite_Detected
Drug metabolism [35]: Metabolite_Detected

C=C(c1ccnc(C)c1)c1ccc2c(c1)c1ccccc1n2C
IC50 (HCT-116 [1]): 19 nM
IC50 [2]: 6200 nM

C=C(c1ccc2c(c1)c1ccccc1n2C)c1cn(C)c(=O)n(C)c1=O
IC50 (HCT-116 [1]): 195 nM

C=C(c1ccc(OC)c(O)c1)c1cc(OC)c(O)c(OC)c1
Drug metabolism (Cytochrome P450 [34]): Metabolite_Detected
Drug metabolism [35]: Metabolite_Detected

C=C(c1cc(C)nc(C)c1)c1ccc2c(ccn2C)c1
Drug metabolism (Cytochrome P450 [3]): Metabolite_Detected
IC50 (HCT-116 [1]): 3.8 nM
solubility at 4 h [5]: 0.54 µg/mL (≈ 2.06 µM)
IC50 (K-562R [6]): 0.84 nM
IC50 (K562): 1.82 nM
IC50 [2]: 3700 nM
IC50 (A549 [7]): 61.9 nM
IC50 (U-87 MG): 31.6 nM
Drug metabolism (Cytochrome P450 [8]): Metabolite_Detected
logP at 24 h [9]: 5.2
Drug metabolism [10]: Metabolite_Detected
Drug metabolism [11]: Metabolite_Detected
IC50 (HUVEC [13]): 0.9 nM

C=C(c1cc(OC)c(OC)c(OC)c1)c1ccc2c(c1)c1ccccc1n2C
IC50 (HCT-116 [1]): 15 nM
IC50 [2]: 3000 nM

C=C(c1ccc2c(c1)c1ccccc1n2C)c1nc(C)nc2ccccc12
IC50 (HCT-116 [1]): 40 nM
IC50 [2]: 2100 nM

C=C(c1ccc(OC)c(O)c1)c1cc(OC)c(OC)c(OC)c1O
Drug metabolism (Cytochrome P450 [34]): Metabolite_Detected
Drug metabolism [35]: Metabolite_Detected
